Values of other authors, collected in patent US20260216065A1, “PHARMACEUTICAL COMPOSITIONS FOR NASAL DELIVERY” (Therakind Limited, priority 2023, published 2026).

Details: room temperature (25° C.)

time for which nasal spray solutions are stable: 48 h
Compound: Cc1nccn1CC1CCc2c(c3ccccc3n2C)C1=O (racemic) [ondansetron, (RS)-9-Methyl-3-[(2-methyl-1H-imidazol-1-yl)methyl]-2,3-dihydro-1H-carbazol-4(9H)-one]
